For one molecule, IC50 results are on record in patent US7666845B2, “Compounds having inhibitory activity against sodium-dependent glucose transporter” (Janssen Pharmaceutica N.V., priority 2006, dated 2010).

In the experiment the target is T1, human SGLT2 (Homo sapiens, UniProt P31639).
T1 construct: expressed in transfected cells; host or cells: CHOK1 (Chinese hamster ovary) cells under Geneticin selection
T1 sequence (P31639 1-672): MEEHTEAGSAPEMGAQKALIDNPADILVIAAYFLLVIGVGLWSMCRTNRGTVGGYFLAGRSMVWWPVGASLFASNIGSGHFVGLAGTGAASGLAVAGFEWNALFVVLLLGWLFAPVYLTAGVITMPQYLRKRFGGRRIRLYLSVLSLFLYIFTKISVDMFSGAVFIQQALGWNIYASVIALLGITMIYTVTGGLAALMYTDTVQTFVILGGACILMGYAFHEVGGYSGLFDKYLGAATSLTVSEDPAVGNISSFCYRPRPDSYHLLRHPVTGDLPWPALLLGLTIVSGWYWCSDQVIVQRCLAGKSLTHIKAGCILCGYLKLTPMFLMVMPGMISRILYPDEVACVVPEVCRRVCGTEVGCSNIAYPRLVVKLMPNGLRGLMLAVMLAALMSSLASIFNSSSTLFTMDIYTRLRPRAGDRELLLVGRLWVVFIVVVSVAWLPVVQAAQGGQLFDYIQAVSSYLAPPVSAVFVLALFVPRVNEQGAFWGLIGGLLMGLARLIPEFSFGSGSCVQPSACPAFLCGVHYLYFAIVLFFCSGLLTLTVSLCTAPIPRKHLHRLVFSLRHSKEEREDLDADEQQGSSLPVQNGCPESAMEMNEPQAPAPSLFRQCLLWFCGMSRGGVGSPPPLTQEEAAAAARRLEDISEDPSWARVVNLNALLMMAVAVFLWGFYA
Description: 14C-AMG uptake in CHOK1 cells expressing human SGLT2. It is filed as cell-based. To be noted: 14C-AMG 0.5 mM, 2 hours at 37° C., read-out: Human SGLT2 inhibition IC50. On the procedure:
CHOK1 cells expressing human SGLT2 were seeded in 96-well white walled plates at a density of 50,000 cells/well in F-12 nutrient mixture (Ham's F-12) containing 10% fetal bovine serum, 400 μg/ml Geneticin, 50 units/ml sodium penicillin G (Gibco-BRL) and 50 μg/ml streptomycin sulfate. After 2 days of culture at 37° C. in a humidified atmosphere containing 5% CO2, cells were washed once with the assay buffer (137 mM NaCl, 5 mM KCl, 1 mM CaCl2, 1 mM MgCl2, 50 mM Hepes, and 20 mM Tris, pH 7.4) and incubated with 80 μl of the buffer containing test compounds for 10 min at 37° C. Test compounds were dissolved in DMSO. The final concentration of DMSO was 0.5%. The transport reaction was initiated by addition of 20 μl [^14C]-methyl-α-D-glucopyranoside (^14C-AMG, 0.08 uCi per well) solution (final concentration, 0.5 mM). After incubation for 2 hours at 37° C., the uptake was stopped by aspiration of the incubation mixture, the cells were washed three times with ice-cold PBS. Then, cells were solubilized with 0.3 N NaOH and scintalin was added for determination of radioactivity by a liquid scintillation counter. Nonspecific AMG uptake was defined as that which occurred in the presence of 100 μM of phlorizin, a specific inhibitor of sodium-dependent glucose cotransporter. Specific uptake was normalized for the protein concentrations measured by the method of Bradford. […]

SMILES strings stand for the structures.

By IC50 is commonly meant the concentration at which inhibition is half-maximal. In the case of `Cc1ccc(C2OC(C(=O)O)C(O)C(O)C2O)cc1Cc1ccc(-c2ccc(F)cc2)s1` (stereo not shown) [Compound 1, 6-{3-[5-(4-Fluoro-phenyl)-thiophen-2-ylmethyl]-4-methyl-phenyl}-3,4,5-trihydroxy-tetrahydro-pyran-2-carboxylic acid], the IC50 was 1.1 µM.
